Consider four compounds from PubChem BioAssay AID1259407 (Chemical Carcinogenesis Research Information System (CCRIS), 2018).

SMILES strings stand for the structures. Activity calls are given as the source filed them. The rule behind the calls is not given here.

In the data set the test system is CCRIS mutagenicity, Ames/micronucleus/aberration tests. The data set can be described thus: CCRIS mutagenicity studies.
Setting [1] is: Test System: AMES SALMONELLA TYPHIMURIUM, Strain/Indicator: TA98, Metabolic Activation: NONE, Method: STANDARD PLATE.
The mark [2] stands for this setting: Test System: AMES SALMONELLA TYPHIMURIUM, Strain/Indicator: TA98, Metabolic Activation: RAT, LIVER, S-9, AROCLOR 1254, Method: STANDARD PLATE.
[3] abbreviates: Test System: AMES SALMONELLA TYPHIMURIUM, Strain/Indicator: TA100, Metabolic Activation: NONE, Method: STANDARD PLATE.
The mark [4] stands for this setting: Test System: AMES SALMONELLA TYPHIMURIUM, Strain/Indicator: TA1535, Metabolic Activation: NONE, Method: STANDARD PLATE.
[5] abbreviates: Test System: AMES SALMONELLA TYPHIMURIUM, Strain/Indicator: TA1537, Metabolic Activation: NONE, Method: STANDARD PLATE.

With `CC[n+]1c(-c2ccccc2)c2cc(N)ccc2c2ccc(N)cc21`, the mutagenic call was “inactive; negative” (End Point: IN VITRO MICRONUCLEUS, Test System: CHO CELLS, Metabolic Activation: RAT, LIVER, S-9, AROCLOR 1254); “inactive; negative” (Test System: AMES SALMONELLA TYPHIMURIUM, Strain/Indicator: TA97A, Metabolic Activation: NONE, Method: STANDARD PLATE); “active; positive” (Test System: AMES SALMONELLA TYPHIMURIUM, Strain/Indicator: TA97A, Metabolic Activation: RAT LIVER S-9, AROCLOR 1254, Method: STANDARD PLATE); “inactive; negative” under setting [1]; “active; positive” (Test System: AMES SALMONELLA TYPHIMURIUM, Strain/Indicator: TA98, Metabolic Activation: RAT LIVER S-9, AROCLOR 1254, Method: STANDARD PLATE); “active; positive” (Test System: AMES SALMONELLA TYPHIMURIUM, Strain/Indicator: TA98, Metabolic Activation: RAT, LIVER, S-9, AROCLOR 1254, HAMSTER, LIVER, S-9, AROCLOR 1254, Method: STANDARD PLATE). Moreover, the mutagenic call under setting [2] is “active; positive”; the mutagenic call (Test System: AMES SALMONELLA TYPHIMURIUM, Strain/Indicator: TA98, Metabolic Activation: RAT, LIVER, S-9, AROCLOR 1254 OR PHENOBARBITOL, Method: STANDARD PLATE) was “active; positive”; the mutagenic call under setting [3] was “inactive; negative”; the mutagenic call (Test System: AMES SALMONELLA TYPHIMURIUM, Strain/Indicator: TA100, Metabolic Activation: RAT LIVER S-9, AROCLOR 1254, Method: STANDARD PLATE) is “inactive; negative”; the mutagenic call (Test System: AMES SALMONELLA TYPHIMURIUM, Strain/Indicator: TA100, Metabolic Activation: RAT, LIVER, S-9, AROCLOR 1254 OR PHENOBARBITOL, Method: STANDARD PLATE) is “inactive; negative”; the mutagenic call (Test System: AMES SALMONELLA TYPHIMURIUM, Strain/Indicator: TA102, Metabolic Activation: NONE, Method: STANDARD PLATE) was “inactive; negative”. The mutagenic call runs as follows: (Test System: AMES SALMONELLA TYPHIMURIUM, Strain/Indicator: TA102, Metabolic Activation: RAT LIVER S-9, AROCLOR 1254, Method: STANDARD PLATE) “active; positive”; under setting [4], “inactive; negative”; (Test System: AMES SALMONELLA TYPHIMURIUM, Strain/Indicator: TA1535, Metabolic Activation: RAT LIVER S-9, AROCLOR 1254, Method: STANDARD PLATE) “inactive; negative”; (Test System: AMES SALMONELLA TYPHIMURIUM, Strain/Indicator: TA1535, Metabolic Activation: RAT, LIVER, S-9, AROCLOR 1254 OR PHENOBARBITOL, Method: STANDARD PLATE) “inactive; negative”; under setting [5], “inactive; negative”; (Test System: AMES SALMONELLA TYPHIMURIUM, Strain/Indicator: TA1537, Metabolic Activation: RAT LIVER S-9, AROCLOR 1254, Method: STANDARD PLATE) “active; positive”. In addition, the mutagenic call is “active; positive” (Test System: AMES SALMONELLA TYPHIMURIUM, Strain/Indicator: TA1537, Metabolic Activation: RAT, LIVER, S-9, AROCLOR 1254, HAMSTER, LIVER, S-9, AROCLOR 1254 (2.5-20%), Method: STANDARD PLATE); “active; positive” (Test System: AMES SALMONELLA TYPHIMURIUM, Strain/Indicator: TA1537, Metabolic Activation: RAT, LIVER, S-9, AROCLOR 1254, HAMSTER, LIVER, S-9, AROCLOR 1254, Method: STANDARD PLATE); “active; positive” (Test System: AMES SALMONELLA TYPHIMURIUM, Strain/Indicator: TA1537, Metabolic Activation: RAT, LIVER, S-9, AROCLOR 1254 OR PHENOBARBITOL, Method: STANDARD PLATE); “inactive; negative” (Test System: AMES SALMONELLA TYPHIMURIUM, Strain/Indicator: TA1538, Metabolic Activation: NONE, Method: STANDARD PLATE); “active; positive” (Test System: AMES SALMONELLA TYPHIMURIUM, Strain/Indicator: TA1538, Metabolic Activation: RAT LIVER S-9, AROCLOR 1254, Method: STANDARD PLATE); “active; positive” (Test System: AMES SALMONELLA TYPHIMURIUM, Strain/Indicator: TA1538, Metabolic Activation: RAT, LIVER, S-9, AROCLOR 1254, HAMSTER, LIVER, S-9, AROCLOR 1254, Method: STANDARD PLATE). Moreover, the mutagenic call is “active; positive” (Test System: AMES SALMONELLA TYPHIMURIUM, Strain/Indicator: TA1538, Metabolic Activation: RAT, LIVER, S-9, AROCLOR 1254, Method: STANDARD PLATE); “active; positive” (Test System: AMES SALMONELLA TYPHIMURIUM, Strain/Indicator: TA1538, Metabolic Activation: RAT, LIVER, S-9, AROCLOR 1254 OR PHENOBARBITOL, Method: STANDARD PLATE); “inactive; negative” (Test System: CHINESE HAMSTER OVARY, Strain/Indicator: CHO-K1-BH4 (HGPRT)/6-THIOGUANINE, Metabolic Activation: NONE, Method: SUSPENSION/PLATE); “inactive; negative” (Test System: CHINESE HAMSTER OVARY, Strain/Indicator: CHO-K1-BH4 (HGPRT)/6-THIOGUANINE, Metabolic Activation: S-9, Method: SUSPENSION/PLATE); “inactive; negative” (Test System: CHINESE HAMSTER OVARY, Strain/Indicator: CHO-K1-BH4 (HGPRT), Metabolic Activation: NONE, Method: SUSPENSION/PLATE); “inactive; negative” (Test System: CHINESE HAMSTER OVARY, Strain/Indicator: CHO-K1-BH4 (HGPRT), Metabolic Activation: RAT, LIVER, S-9, AROCLOR, Method: SUSPENSION/PLATE). Also, the mutagenic call is “inactive; negative” (Test System: CHINESE HAMSTER V-79, Strain/Indicator: V-79/6-THIOGUANINE, Metabolic Activation: NONE, Method: FLASK ASSAY); “inactive; negative” (Test System: E. COLI, Strain/Indicator: WP2, Metabolic Activation: NONE, Method: PREINCUBATION); “inactive; negative” (Test System: E. COLI, Strain/Indicator: WP2 UVRA, Metabolic Activation: NONE, Method: PREINCUBATION); “active; positive. reevaluation of results: positive” (Test System: MOUSE LYMPHOMA, Strain/Indicator: L5178Y (TK+/TK-), Metabolic Activation: RAT, LIVER, S-9, AROCLOR 1254, Method: SUSPENSION/PLATE); “inactive; negative” (Test System: MOUSE LYMPHOMA, Strain/Indicator: L5178Y (TK+/TK-), Metabolic Activation: S-9, Method: SUSPENSION/PLATE).
Turning to `CN(C)CCOc1ccc(/C(=C(/CCCl)c2ccccc2)c2ccccc2)cc1`, the mutagenic call (End Point: IN VITRO CHROMOSOMAL ABERRATIONS, Test System: SYRIAN HAMSTER EMBRYO (SHE) CELLS, Metabolic Activation: NONE) was “active; positive (ploidy changes)”.
For `c1ccc2c(c1)cc1c3c2ccc2cccc(c23)C2NC12` (stereo not drawn), the mutagenic call is “active; positive” under setting [1]; “active; positive” (Test System: AMES SALMONELLA TYPHIMURIUM, Strain/Indicator: TA100, Metabolic Activation: MICROSOMAL EPOXIDE HYDROLASE, Method: PREINCUBATION); “active; positive” (Test System: AMES SALMONELLA TYPHIMURIUM, Strain/Indicator: TA100, Metabolic Activation: NONE, Method: PREINCUBATION); “active; positive” under setting [3]; “active; positive” (Test System: CHINESE HAMSTER V-79, Strain/Indicator: V-79/6-THIOGUANINE, Metabolic Activation: NONE, Method: REPLATING); “active; positive” (Test System: CHINESE HAMSTER V-79, Strain/Indicator: V-79/6-THIOGUANINE, Metabolic Activation: NONE, Method: STANDARD PLATE). The mutagenic call (Test System: E. COLI, Strain/Indicator: WP2UVRA, Metabolic Activation: NONE, Method: STANDARD PLATE) is “active; positive”.
On to `CC(C)=CC1C(C(=O)O)C1(C)C` (stereo not drawn), for which the mutagenic call was “inactive; negative” under setting [1]; “inactive; negative” under setting [2]; “inactive; negative” under setting [3]; “inactive; negative” (Test System: AMES SALMONELLA TYPHIMURIUM, Strain/Indicator: TA100, Metabolic Activation: RAT, LIVER, S-9, AROCLOR 1254, Method: STANDARD PLATE); “inactive; negative” under setting [4]; “inactive; negative” (Test System: AMES SALMONELLA TYPHIMURIUM, Strain/Indicator: TA1535, Metabolic Activation: RAT, LIVER, S-9, AROCLOR 1254, Method: STANDARD PLATE). The mutagenic call is, setting by setting: under setting [5], “inactive; negative”; (Test System: AMES SALMONELLA TYPHIMURIUM, Strain/Indicator: TA1537, Metabolic Activation: RAT, LIVER, S-9, AROCLOR 1254, Method: STANDARD PLATE) “inactive; negative”; (Test System: E. COLI, Strain/Indicator: WP2, Metabolic Activation: NONE, Method: STANDARD PLATE) “inactive; negative”; (Test System: E. COLI, Strain/Indicator: WP2, Metabolic Activation: RAT, LIVER, S-9, AROCLOR 1254, Method: STANDARD PLATE) “inactive; negative”.
